Experimental data: US12589158B2 (priority 2022, dated 2026)

Test: Pharmacokinetics following single administration in SD rat
Set-up: species or system SD rats
Details: in vivo, sc, 50 nmol/kg
Procedure: The compound is administrated to male SD rats (230-268 g, n=3) at a dose of 50.0 nmol/kg (s.c.) or 25.0 nmol/kg (i.v.). […] 30.0 μL of thawed plasma sample is taken. 150 μL of acetonitrile solution (containing 5 ng mL^−1 Verapamil, 50 ng·mL^−1 Glibenclamide, 200 ng·mL^−1 Tolbutamide and 200 ng·mL^−1 Diclofenac) are added to precipitate protein. The mixture is vortexed for 5 minutes, and centrifuged at 3700 rpm for 8 minutes. 70.0 μL of the supernatant is taken, into which 70.0 μL of 0.5% aqueous formic acid solution is added. The mixture is vortexed for 5 minutes. 15 μL of the mixture solution is sampled and injected into the LC-MS/MS to determine the drug concentration in plasma. 20.0 μL of thawed plasma sample is taken. 60 μL of acetonitrile solution (containing 5 ng mL^−1 Verapamil, 50 ng·mL^−1 Glibenclamide, 200 ng·mL^−1 Tolbutamide and 200 ng·mL^−1 Diclofenac) are added to precipitate protein. […] The mixture is vortexed for 10 minutes. 10.0 μL of the mixture solution is sampled and injected into the LC-MS/MS to determine the drug concentration in plasma. 30.0 μL of thawed plasma sample is taken. 150 μL of acetonitrile solution (containing 5 ng mL^−1 Verapamil, 50 ng mL^−1 Glibenclamide, 200 ng·mL^−1 Tolbutamide and 200 ng·mL^−1 Diclofenac) are added to precipitate protein. The mixture is vortexed for 5 minutes, and centrifuged at 3700 rpm for 8 minutes. 70.0 μL of the supernatant is taken, into which 70.0 μL of 0.5% aqueous formic acid solution is added. The mixture is vortexed for 5 minutes. 10.0 μL of the mixture solution is sampled and injected into the LC-MS/MS to determine the drug concentration in plasma.

Structure (SMILES)	MRT inf	MRT last
CC[C@H](C)[C@H](NC(=O)C(C)(C)NC(=O)[C@H](Cc1ccc(O)cc1)NC(=O)[C@H](CC(=O)O)NC(=O)[C@H](CO)NC(=O)[C@@H](NC(=O)C(C)(Cc1ccccc1)NC(=O)[C@@H](NC(=O)CNC(=O)[C@H](CCC(=O)O)NC(=O)C(C)(C)NC(=O)[C@@H](N)Cc1ccc(O)cc1)[C@@H](C)O)[C@@H](C)O)C(=O)NC(C)(C)C(=O)N[C@@H](CC(C)C)C(=O)N[C@@H](CC(=O)O)C(=O)N[C@@H](CCCCN)C(=O)N[C@@H](CCC(N)=O)C(=O)N[C@@H](C)C(=O)N[C@@H](CCC(N)=O)C(=O)N[C@@H](C)C(=O)N[C@@H](CCC(=O)O)C(=O)N[C@@H](Cc1ccccc1)C(=O)N[C@H](C(=O)N[C@@H](CCCCNC(=O)COCCOCCNC(=O)COCCOCCNC(=O)CC[C@H](NC(=O)CCCCCCCCCCCCCCCCCCC(=O)O)C(=O)O)C(=O)N[C@@H](Cc1c[nH]c2ccccc12)C(=O)N[C@@H](CC(C)C)C(=O)N[C@@H](CC(C)C)C(=O)N[C@@H](CCCCN)C(=O)NCC(=O)NCC(=O)N1CCC[C@H]1C(=O)N[C@@H](CO)C(=O)N[C@@H](CO)C(=O)NCC(=O)N[C@@H](C)C(=O)N1CCC[C@H]1C(=O)N1CCC[C@H]1C(=O)N1CCC[C@H]1C(=O)N[C@@H](CO)C(=O)N[C@@H](CCCCN)C(N)=O)C(C)C (stereo partly shown) [P013]	29.9 ± 1.33 h	26.2 ± 0.7 h
CC[C@H](C)[C@H](NC(=O)C(C)(C)NC(=O)[C@H](Cc1ccc(O)cc1)NC(=O)[C@H](CC(=O)O)NC(=O)[C@H](CO)NC(=O)[C@@H](NC(=O)C(C)(Cc1ccccc1)NC(=O)[C@@H](NC(=O)CNC(=O)[C@H](CCC(=O)O)NC(=O)C(C)(C)NC(=O)[C@@H](N)Cc1ccc(O)cc1)[C@@H](C)O)[C@@H](C)O)C(=O)NC(C)(C)C(=O)N[C@@H](CC(C)C)C(=O)N[C@@H](CC(=O)O)C(=O)N[C@@H](CCCCN)C(=O)N[C@@H](CCC(N)=O)C(=O)N[C@@H](C)C(=O)N[C@@H](CCC(N)=O)C(=O)N[C@@H](C)C(=O)N[C@@H](CCC(=O)O)C(=O)N[C@@H](Cc1ccccc1)C(=O)N[C@H](C(=O)N[C@@H](CCCCNC(=O)COCCOCCNC(=O)COCCOCCNC(=O)CC[C@H](NC(=O)CCCCCCCCCCCCCCCCC(=O)O)C(=O)O)C(=O)N[C@@H](Cc1c[nH]c2ccccc12)C(=O)N[C@@H](CC(C)C)C(=O)N[C@@H](CC(C)C)C(=O)N[C@@H](CCCCN)C(=O)NCC(=O)NCC(=O)N1CCC[C@H]1C(=O)N[C@@H](CO)C(=O)N[C@@H](CO)C(=O)NCC(=O)N[C@@H](C)C(=O)N1CCC[C@H]1C(=O)N1CCC[C@H]1C(=O)N1CCC[C@H]1C(=O)N[C@@H](CO)C(=O)N[C@@H](CCCCN)C(N)=O)C(C)C (stereo partly shown) [P007]	25.7 ± 1.69 h	21.4 ± 1.87 h
CC[C@H](C)[C@H](NC(=O)C(C)(C)NC(=O)[C@H](Cc1ccc(O)cc1)NC(=O)[C@H](CC(=O)O)NC(=O)[C@H](CO)NC(=O)[C@@H](NC(=O)C(C)(Cc1ccccc1)NC(=O)[C@@H](NC(=O)CNC(=O)[C@H](CCC(=O)O)NC(=O)C(C)(C)NC(=O)[C@@H](N)Cc1ccc(O)cc1)[C@@H](C)O)[C@@H](C)O)C(=O)NC(C)(C)C(=O)N[C@@H](CC(C)C)C(=O)N[C@@H](CC(=O)O)C(=O)N[C@@H](CCCCN)C(=O)N[C@@H](CCC(N)=O)C(=O)N[C@@H](C)C(=O)N[C@@H](CCC(N)=O)C(=O)N[C@@H](C)C(=O)N[C@@H](CCC(=O)O)C(=O)N[C@@H](Cc1ccccc1)C(=O)N[C@H](C(=O)N[C@@H](CCCCN)C(=O)N[C@@H](Cc1c[nH]c2ccccc12)C(=O)N[C@@H](CC(C)C)C(=O)N[C@@H](CC(C)C)C(=O)N[C@@H](CCCCNC(=O)COCCOCCNC(=O)COCCOCCNC(=O)CC[C@H](NC(=O)CCCCCCCCCCCCCCCCC(=O)O)C(=O)O)C(=O)NCC(=O)NCC(=O)N1CCC[C@H]1C(=O)N[C@@H](CO)C(=O)N[C@@H](CO)C(=O)NCC(=O)N[C@@H](C)C(=O)N1CCC[C@H]1C(=O)N1CCC[C@H]1C(=O)N1CCC[C@H]1C(=O)N[C@@H](CO)C(=O)N[C@@H](CCCCN)C(N)=O)C(C)C (stereo partly shown) [P008]	25.4 h	21 ± 1.85 h
CC[C@H](C)[C@H](NC(=O)C(C)(C)NC(=O)[C@H](Cc1ccc(O)cc1)NC(=O)[C@H](CC(=O)O)NC(=O)[C@H](CO)NC(=O)[C@@H](NC(=O)C(C)(Cc1ccccc1)NC(=O)[C@@H](NC(=O)CNC(=O)[C@H](CCC(=O)O)NC(=O)C(C)(C)NC(=O)[C@@H](N)Cc1ccc(O)cc1)[C@@H](C)O)[C@@H](C)O)C(=O)NC(C)(C)C(=O)N[C@@H](CC(C)C)C(=O)N[C@@H](CC(=O)O)C(=O)N[C@@H](CCCCN)C(=O)N[C@@H](CCC(N)=O)C(=O)N[C@@H](C)C(=O)N[C@@H](CCC(N)=O)C(=O)N[C@@H](C)C(=O)N[C@@H](CCC(=O)O)C(=O)N[C@@H](Cc1ccccc1)C(=O)N[C@H](C(=O)N[C@@H](CCCCN)C(=O)N[C@@H](Cc1c[nH]c2ccccc12)C(=O)N[C@@H](CC(C)C)C(=O)N[C@@H](CC(C)C)C(=O)N[C@@H](CCCCNC(=O)COCCOCCNC(=O)COCCOCCNC(=O)COCCOCCNC(=O)CC[C@H](NC(=O)CCCCCCCCCCCCCCCCC(=O)O)C(=O)O)C(=O)NCC(=O)NCC(=O)N1CCC[C@H]1C(=O)N[C@@H](CO)C(=O)N[C@@H](CO)C(=O)NCC(=O)N[C@@H](C)C(=O)N1CCC[C@H]1C(=O)N1CCC[C@H]1C(=O)N1CCC[C@H]1C(=O)N[C@@H](CO)C(=O)N[C@@H](CCCCN)C(N)=O)C(C)C (stereo partly shown) [P019]	18.3 ± 2.76 h	17.1 ± 2.55 h
CC[C@H](C)[C@H](NC(=O)C(C)(C)NC(=O)[C@H](Cc1ccc(O)cc1)NC(=O)[C@H](CC(=O)O)NC(=O)[C@H](CO)NC(=O)[C@@H](NC(=O)C(C)(Cc1ccccc1)NC(=O)[C@@H](NC(=O)CNC(=O)[C@H](CCC(=O)O)NC(=O)C(C)(C)NC(=O)[C@@H](N)Cc1ccc(O)cc1)[C@@H](C)O)[C@@H](C)O)C(=O)NC(C)(C)C(=O)N[C@@H](CC(C)C)C(=O)N[C@@H](CC(=O)O)C(=O)N[C@@H](CCCCN)C(=O)N[C@@H](CCC(N)=O)C(=O)N[C@@H](C)C(=O)N[C@@H](CCC(N)=O)C(=O)N[C@@H](C)C(=O)N[C@@H](CCC(=O)O)C(=O)N[C@@H](Cc1ccccc1)C(=O)N[C@H](C(=O)N[C@@H](CCCCN)C(=O)N[C@@H](Cc1c[nH]c2ccccc12)C(=O)N[C@@H](CC(C)C)C(=O)N[C@@H](CC(C)C)C(=O)N[C@@H](CCCCNC(=O)COCCOCCNC(=O)COCCOCCNC(=O)CC[C@H](NC(=O)CC[C@H](NC(=O)CC[C@H](NC(=O)CCCCCCCCCCCCCCCCC(=O)O)C(=O)O)C(=O)O)C(=O)O)C(=O)NCC(=O)NCC(=O)N1CCC[C@H]1C(=O)N[C@@H](CO)C(=O)N[C@@H](CO)C(=O)NCC(=O)N[C@@H](C)C(=O)N1CCC[C@H]1C(=O)N1CCC[C@H]1C(=O)N1CCC[C@H]1C(=O)N[C@@H](CO)C(=O)N[C@@H](CCCCN)C(N)=O)C(C)C (stereo partly shown) [P018]	33.4 ± 7 h	28.5 ± 4.45 h
